Results published in patent publication US20060134729A1, “Process for the universal detection of microorganisms and reaction environment permitting the implementation of the process” (HEMOSYSTEM, a corporation of France, priority 2002, published 2006).

Columns and labels:
[1] = tested on: Pseudomonas aeruginosa; assay: Marking with nisine/EDTA/N octyl glucopyranoside; format: cell-based; settings: NOG 0.25% and 0.5% with nisine 0.2 μg/ml, EDTA 7.5 mM
Method: (§1) 100 μg/ml: […] (starting material at 2.5% weight/weight) QSP 50 ml distilled water. • EDTA 100 mM: […] disodic EDTA, QSP 50 ml distilled water, • N octyl glucopyranoside 5%: 2.5 g in 50 ml distilled water • 20, 10, 5 or 2.5 ml NOG at 5% • +3.75 ml EDTA 100 mM • +0.1 ml […] 100 μg/ml • QSP 50 ml distilled water • This solution is at pH 4.8.

[2] = tested on: Staphylococcus epidermidis; assay: Marking with nisine/EDTA/N octyl glucopyranoside; format: cell-based; settings: NOG 0.25% and 0.5% with nisine 0.2 μg/ml, EDTA 7.5 mM
Method: as §1

[3] = tested on: Staphylococcus epidermidis; settings: EDTA 5 mM; PBS, distilled water, TSB, plasma
Method: (§2) Prepare a solution of PicoGreen at 1/2000 (molecular probe) in PBS buffer. EDTA 5 mM: 0.093 g disodic EDTA, QSP 50 mL distilled water. Suspension of bacteria prepared in PBS in distilled water in a TSB (tryptone soy broth) environment and in plasma. • Escherichia coli (CIP 105901) • Staphylococcus epidermidis (CIP 68.21) Adjust the preparations to obtain a suspension with 10^3 bacteria/ml. • 1.2 mL of marking solution • +3 mL of bacterial suspension in the various environments • Incubation 15 minutes at 22° C. • +7 mL of EDTA solution • Filtration on char filter 0.4 μm porosity. III Analysis and Results After filtration, the filter is analyzed by cytometry in solid phase and the results are expressed as the number of fluorescent bacteria.

[4] = tested on: Escherichia coli; settings: EDTA 5 mM; PBS, distilled water, TSB, plasma
Method: as §2

[5] = tested on: Escherichia coli; assay: PicoGreen DNA marking with association nisine/EDTA, cytometry in solid phase; format: cell-based
Method: (§3) Prepare a solution of PicoGreen at 1/2000 (molecular probe) in PBS buffer (saline phosphate buffer, pH 7.4).
Nisine 10 μg/ml: 0.02 g nisine (starting material at 2.5% weight/weight) QSP 50 ml distilled water. • EDTA 20 mM: 0.372 g disodic EDTA, QSP 50 ml of distilled water, • Prepare a range of EDTA with 0.25; 2.5; 12.5 and 18.75 ml of EDTA 20 mM (concentration range 0.1; 1; 5 and 7.5 mM), • Add 50, 250, 500 μl or 1 ml nisine 10 μg/ml (concentration range […]; 0.05; 0.1 and […]), • QSP 50 ml of distilled water. Suspension of Bacteria Prepared in PBS • Escherichia coli (CIP 105901)
(§4) Adjust the preparations to obtain a suspension with 10^3 bacteria/ml.
• 1.2 ml of marking solution • +3 ml bacterial suspension • Incubation 15 minutes at 22° C. • +7 ml of solution of nisine or nisine/EDTA • Filtration on char filter 0.4 μm porosity. III Analysis and Results
After filtration, the filter is analyzed by cytometry in solid phase and the results expressed as the number of bacteria detected in cytometry in solid phase and as a percentage of bacteria detected relative to the method of enzymatic detection.

[6] = tested on: Escherichia coli, Serratia marcescens, Staphylococcus epidermidis; assay: Optimization of nisine/EDTA concentrations, entirety of bacteria tested; format: cell-based
Method: as §3
(§5) […] nisine (starting material at 2.5% weight/weight) in 50 ml distilled water or 10 μg/ml,
(§6) Nisine 0.05 μg/ml/EDTA 7.5 mM: 250 μl nisine 10 μg/ml +0.140 g disodic EDTA, QSP 50 mL distilled water,
(§7) Nisine 0.1 μg/ml/EDTA 7.5 mM: […] nisine 10 μg/ml +0.140 g disodic EDTA, QSP 50 mL distilled water,
(§8) Nisine 0.5 μg/ml/EDTA 7.5 mM: 2.5 ml nisine 10 μg/ml+0.140 g disodic EDTA, QSP 50 mL water.
(§9) • Escherichia coli (CIP 105901) • Staphylococcus epidermidis (CIP 68.21) • Serratia marcescens (CIP 103716)
as §4
(§10) • 1.2 mL marking solution • +3 mL bacterial suspension • Incubation 15 minutes at 22° C. • +7 ml solution of nisine/EDTA at different concentrations • Filtration on char filter 0.4 μm porosity. III Analysis and Results
(§11) After filtration, the filter is analyzed by cytometry in solid phase and the results expressed as the number of bacteria detected in cytometry in solid phase.

[7] = tested on: Staphylococcus epidermidis; assay: PicoGreen DNA marking with nisine alone, cytometry in solid phase; format: cell-based; settings: nisine solutions 2, 10, 50 μg/ml, bacteria in PBS
Method: The use of nisine solely as a permeabilizing agent for facilitating penetration of the marking agent.
Prepare a series of dilutions of nisine (starting material at 2.5% weight/weight) in distilled water: • 0.1 g nisine in 50 ml distilled water=solution 50 μg/ml, • 0.02 g of nisine in 50 ml distilled water=solution 10 μg/ml, • 0.004 g of nisine in 50 ml distilled water=solution 2 μg/ml. Suspension of Bacteria Prepared in PBS • Escherichia coli (CIP 105901) • Staphylococcus epidermidis (68.21)
Adjust the preparations in order to obtain a suspension with 10^4 bacteria/ml.

[8] = tested on: Escherichia coli; assay: Optimization of nisine/EDTA concentrations, cytometry in solid phase; format: cell-based; settings: EDTA fixed at 7.5 mM
Method: as §3, §5, §6, §7, §8, §9, §4, §10, §11

[9] = tested on: Staphylococcus epidermidis; assay: Marking in the presence of chlorohexidine alone, Gram+; format: cell-based; settings: chlorohexidine 0.005%
Method: (§12) Test implementing chlorohexidine only as permeabilizing agent for favoring the penetration of the bacterial marking agent. […] The counting on a Petri dish at 48 hours takes place with the reference method. The results of this experiment with a composition of the reaction environment comprising chlorohexidine as cellular penetration reactant to improve the marking of Escherichia coli, Pseudomonas aeruginosa and Serratia marcescens (Gram (−) bacterial strains) and Staphylococcus epidermidis are illustrated in FIG. 8.

[10] = tested on: Pseudomonas aeruginosa; assay: Marking in the presence of chlorohexidine alone in different environments; format: cell-based; settings: bacteria in PBS, platelet concentrate, autologous plasma
Method: Test implementing chlorohexidine only as permeabilizing agent for favoring the penetration of the bacterial marking agent. […] The counting on a Petri dish at 48 hours takes place with the reference method.

[11] = tested on: Escherichia coli, Staphylococcus epidermidis, Serratia marcescens, Pseudomonas aeruginosa; assay: Marking with association chlorohexidine/N-octyl glucopyranoside; format: cell-based; settings: most elevated chlorohexidine concentration (0.001% vs 0.0005%) with NOG; PBS and platelet concentrate
Description: The results of this experiment showing the marking of DA and the detection of marked bacteria in the presence of a composition of the reaction environment comprising chlorohexidine in association with NOG for increasing the permeabilizing power and the penetration of the marker are illustrated in FIGS. 10A and 10B.

[12] = tested on: Escherichia coli, Pseudomonas aeruginosa and Serratia marcescens; assay: Marking in the presence of chlorohexidine alone, Gram- strains; format: cell-based; settings: tested range 0.01%, 0.005%, 0.001%
Method: as §12

Q: Which results are given for `CCCCCCCCO[C@@H]1O[C@H](CO)[C@@H](O)[C@H](O)[C@H]1O` [N octyl glucopyranoside, N-octyl β D-glucopyranoside]?
A: effect of addition on the marking of Pseudomonas aeruginosa [1]: positive effects; effect of addition on the marking of Staphylococcus epidermidis [2]: positive effects

Q: With `O=C([O-])CN(CCN(CC(=O)[O-])CC(=O)O)CC(=O)O.[Na+].[Na+]` [EDTA, disodic EDTA] as the compound, how does the “marking of Gram+ bacteria with EDTA by itself” value [3] read?
A: does not permit a correct marking

Q: What about the “marking of Gram- bacteria with EDTA by itself” value [4] of the same compound?
A: does not permit a correct marking

Q: And the “EDTA concentration at which percentage of marked Escherichia coli is maximal” value ([5]; with nisine 0.1 μg/ml)?
A: 7.5 mM

Q: What about the “EDTA concentration giving better detection of the entirety of bacteria tested” value ([6]; associated with nisine 0.2 μg/ml) of the same compound?
A: 7.5 mM

Q: How did the “preferable nisine concentration for marking” value [7] turn out when nisine was run?
A: low concentrations are preferable

Q: What about the “marking of the Gram+ on addition of nisine” value ([7]; PicoGreen) of the same compound?
A: good marking

Q: What about the “nisine concentration at which percentage of marked Escherichia coli is maximal” value ([5]; with EDTA 7.5 mM) of the same compound?
A: 0.1 µg/mL

Q: What about the “nisine concentration giving better detection of the entirety of bacteria tested” value ([6]; associated with EDTA 7.5 mM) of the same compound?
A: 0.2 µg/mL

Q: And the “nisine concentration at which percentage of marked Escherichia coli is maximal” value [8]?
A: 0.1 µg/mL

Q: How did the “effect on Gram+ bacteria” value [9] turn out when `CC(=O)O.CC(=O)O.NC(=N\CCCCCC/N=C(N)/N=C(\N)Nc1ccc(Cl)cc1)/N=C(\N)Nc1ccc(Cl)cc1` [chlorohexidine, Diacetate chlorohexidine] was run?
A: toxic

Q: What about the “effect of plasma on cellular penetration of the marker with chlorohexidine” value [10] of the same compound?
A: presence of plasma antagonizes the effect

Q: And the “marking of the bacteria” value [11]?
A: best marking

Q: And the “optimal concentration for the detection of Gram- bacteria” value [12]?
A: 0.005%
